{"source": "paper PMC2229062", "about": "(The Journal of General Physiology, 1991)", "test_system": "GK (G protein coupled to the muscarinic K+ channel IK.ACh)", "assay": "inside-out patch clamp, inhibition of GTP-induced IK.ACh openings, Hill fit", "format": "biochemical, Cavia porcellus", "details": "no agonist; against 10 µM GTP; same; assumed competitive with GTP", "data": [{"smiles": "Nc1nc2c(ncn2[C@@H]2O[C@H](COP(=O)(O)OP(=O)(O)O)[C@@H](O)[C@H]2O)c(=O)[nH]1", "note": "[GDP]", "values": [{"measurement": "IC50", "value": 510, "unit": "nM"}]}]}
